Experimental data taken from publication PMC12775434, “Ultra-large virtual screening unveils potent agonists of the neuromodulatory orphan receptor GPR139” (Nature Communications, 2025).
Where “and” joins values, the source holds several entries; their conditions need not be identical. Equal entries are not always repeated.

Biological target: T1, GPR139 (Homo sapiens, UniProt Q6DWJ6)
T1 sequence (Q6DWJ6 1-353): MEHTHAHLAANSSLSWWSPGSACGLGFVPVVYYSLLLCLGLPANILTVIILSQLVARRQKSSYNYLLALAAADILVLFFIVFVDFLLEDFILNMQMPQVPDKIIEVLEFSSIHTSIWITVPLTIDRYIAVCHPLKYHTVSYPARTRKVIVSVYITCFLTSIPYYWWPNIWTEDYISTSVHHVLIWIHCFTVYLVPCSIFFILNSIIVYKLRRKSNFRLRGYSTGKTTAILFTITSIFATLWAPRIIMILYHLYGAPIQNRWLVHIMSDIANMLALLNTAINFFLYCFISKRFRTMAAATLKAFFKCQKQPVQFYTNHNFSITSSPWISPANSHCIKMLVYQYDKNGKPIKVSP
Assay: Ca2+ mobilization assay, agonist mode, stable GPR139-CHOk1 cell line
Assay type: cell-based
Details: for EC50: GPR139-CHOk1, read-out: EC50, Ca2+ mobilization; for Emax: Supplementary Table 2, normalized to Lundbeck Cmp 1a, mean ± SEM, read-out: Emax (%) Ca2+
Outline: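 Agonist activity of compounds is assessed in stably transfected CHO-K1 cells using the calcium dye Fluo-4 at 37 °C in HEPES-buffered HBSS (pH 7.4). Efficacy is expressed relative to the reference agonist Lundbeck Cmp 1a, set as 100%.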

[1] = log [Compound] M -4.5, replicate experiments
[2] = log [Compound] M -5.0, replicate experiments
[3] = log [Compound] M -5.5, replicate experiments
[4] = log [Compound] M -6.0, replicate experiments
[5] = log [Compound] M -6.5, replicate experiments
[6] = log [Compound] M -7.0, replicate experiments
[7] = log [Compound] M -7.5, replicate experiments
[8] = log [Compound] M -8.0, replicate experiments
[9] = log [Compound] M -8.5, replicate experiments
[10] = log [Compound] M -9.0, replicate experiments

Compound	EC50 [nM]	Emax [%]	Ca2+ signal (% of Cmp 1a) [1]	Ca2+ signal (% of Cmp 1a) [2]	Ca2+ signal (% of Cmp 1a) [3]	Ca2+ signal (% of Cmp 1a) [4]	Ca2+ signal (% of Cmp 1a) [5]	Ca2+ signal (% of Cmp 1a) [6]	Ca2+ signal (% of Cmp 1a) [7]	Ca2+ signal (% of Cmp 1a) [8]	Ca2+ signal (% of Cmp 1a) [9]	Ca2+ signal (% of Cmp 1a) [10]	further results
Cc1cscc1-c1nc(CC(=O)NC(C)c2ccccc2)no1 (centres unmarked) [Compound 1.1, CC(C1=CC=CC=C1)NC(CC2=NOC(C3=CSC=C3C)=N2)=O]	50	125 ± 12	130 % of Cmp 1a and 133 % of Cmp 1a and 104 % of Cmp 1a and 91 % of Cmp 1a	136 % of Cmp 1a and 130 % of Cmp 1a and 133 % of Cmp 1a and 83 % of Cmp 1a	124 % of Cmp 1a and 109 % of Cmp 1a and 177 % of Cmp 1a and 86 % of Cmp 1a	113 % of Cmp 1a and 116 % of Cmp 1a and 167 % of Cmp 1a and 85 % of Cmp 1a	103 % of Cmp 1a and 101 % of Cmp 1a and 147 % of Cmp 1a and 66 % of Cmp 1a	80 % of Cmp 1a and 83 % of Cmp 1a and 116 % of Cmp 1a and 48 % of Cmp 1a	60 % of Cmp 1a and 56 % of Cmp 1a and 80 % of Cmp 1a and 40 % of Cmp 1a	36 % of Cmp 1a and 26 % of Cmp 1a and 21 % of Cmp 1a and 24 % of Cmp 1a	21 % of Cmp 1a and 9 % of Cmp 1a and -4 % of Cmp 1a and 18 % of Cmp 1a	19 % of Cmp 1a and 13 % of Cmp 1a and -16 % of Cmp 1a and 5.33 % of Cmp 1a	Ca2+ signal (% of Cmp 1a) (Agonist mode, individual replicates (Supplementary Figure 4)): 96 % of Cmp 1a and 101 % of Cmp 1a and 83 % of Cmp 1a; fold improved potency compared to compound 1 (Ca2+ mobilization EC50): 3 fold; Ca2+ signal (% of Cmp 1a) (log [Compound] M = -4.5, individual replicate columns): 130 % of Cmp 1a and 133 % of Cmp 1a and 104 % of Cmp 1a and 91 % of Cmp 1a; Ca2+ signal (% of Cmp 1a) (log [Compound] M = -5.0, individual replicate columns): 136 % of Cmp 1a and 130 % of Cmp 1a and 133 % of Cmp 1a and 83 % of Cmp 1a; Ca2+ signal (% of Cmp 1a) (log [Compound] M = -5.5, individual replicate columns): 124 % of Cmp 1a and 109 % of Cmp 1a and 177 % of Cmp 1a and 86 % of Cmp 1a; Ca2+ signal (% of Cmp 1a) (log [Compound] M = -6.0, individual replicate columns): 113 % of Cmp 1a and 116 % of Cmp 1a and 167 % of Cmp 1a and 85 % of Cmp 1a; Ca2+ signal (% of Cmp 1a) (log [Compound] M = -6.5, individual replicate columns): 103 % of Cmp 1a and 101 % of Cmp 1a and 147 % of Cmp 1a and 66 % of Cmp 1a; Ca2+ signal (% of Cmp 1a) (log [Compound] M = -7.0, individual replicate columns): 80 % of Cmp 1a and 83 % of Cmp 1a and 116 % of Cmp 1a and 48 % of Cmp 1a; Ca2+ signal (% of Cmp 1a) (log [Compound] M = -7.5, individual replicate columns): 60 % of Cmp 1a and 56 % of Cmp 1a and 80 % of Cmp 1a and 40 % of Cmp 1a; Ca2+ signal (% of Cmp 1a) (log [Compound] M = -8.0, individual replicate columns): 36 % of Cmp 1a and 26 % of Cmp 1a and 21 % of Cmp 1a and 24 % of Cmp 1a; Ca2+ signal (% of Cmp 1a) (log [Compound] M = -8.5, individual replicate columns): 21 % of Cmp 1a and 9 % of Cmp 1a and -4 % of Cmp 1a and 18 % of Cmp 1a; Ca2+ signal (% of Cmp 1a) (log [Compound] M = -9.0, individual replicate columns): 19 % of Cmp 1a and 13 % of Cmp 1a and -16 % of Cmp 1a and 5.33 % of Cmp 1a
COC(=O)c1cc(NC(=O)NC(C)c2cccc(F)c2F)ccc1C (centres unmarked) [Compound 2, COC(=O)C=1C=C(NC(=O)NC(C)C=2C=CC=C(F)C2F)C=CC1C]	320	83 ± 6	74 % of Cmp 1a and 103 % of Cmp 1a and 90 % of Cmp 1a	60 % of Cmp 1a and 92 % of Cmp 1a and 78 % of Cmp 1a	65 % of Cmp 1a and 88 % of Cmp 1a and 71 % of Cmp 1a	66 % of Cmp 1a and 74 % of Cmp 1a and 68 % of Cmp 1a	25 % of Cmp 1a and 58 % of Cmp 1a and 38 % of Cmp 1a	16 % of Cmp 1a and 20 % of Cmp 1a and 28 % of Cmp 1a	-9 % of Cmp 1a and -8 % of Cmp 1a and 6 % of Cmp 1a	-12 % of Cmp 1a and -7 % of Cmp 1a and 2.84 % of Cmp 1a	-1.88 % of Cmp 1a and 9 % of Cmp 1a and 21 % of Cmp 1a	-14 % of Cmp 1a and 6 % of Cmp 1a and 7 % of Cmp 1a	Ca2+ signal (% of Cmp 1a) (0.1 µM, individual replicates (Supplementary Figure 3)): 18.1 % of Cmp 1a and 15.9 % of Cmp 1a; Ca2+ signal (% of Cmp 1a) (1 µM, individual replicates (Supplementary Figure 3)): 65.0 % of Cmp 1a and 52.8 % of Cmp 1a; Ca2+ signal (% of Cmp 1a) (10 µM, individual replicates (Supplementary Figure 3)): 86.8 % of Cmp 1a and 54.5 % of Cmp 1a; Ca2+ signal (% of Cmp 1a) (Agonist mode, individual replicates (Supplementary Figure 1)): 81 % of Cmp 1a and 65 % of Cmp 1a and 84 % of Cmp 1a; Ca2+ signal (% of Cmp 1a) (primary screen, 10 µM compound, agonist mode, three columns = independent experiments): 81 % of Cmp 1a and 65 % of Cmp 1a and 84 % of Cmp 1a
